According to ChEMBL document CHEMBL1145229, “Identified a morpholinyl-4-piperidinylacetic acid derivative as a potent oral active VLA-4 antagonist” (Bioorg Med Chem Lett, 2005):

Key:
[1] = in vivo; conditions: rat
Description: Half life in lambda1 phase in rat

[2] = in vivo; conditions: rat; remark: listed apart in the source
Description: Half life in lambda2 phase in rat

[3] = in vivo; conditions: Sprague-Dawley, rat, iv, 1.2 mg/kg
Description: Clearance in sprague dawley rat at 1.2 mg/kg intra venous dosage

[4] = in vivo; conditions: Sprague-Dawley, rat, po, 1.2 mg/kg
Description: Percent bioavailability in sprague-dawley rat at a dosage(inta venous 1.2 mg/kg, oral 5 mg/kg )

Molecule Cc1ccccc1NC(=O)Nc1ccc(CC(=O)N2CCCC2C(=O)NCCCCC(=O)O)cc1 (stereo not drawn) has a half-life [1] of 2.8 min, a half-life [2] of 9.1 min and a clearance [3] of 75.1 mL/min/kg. It also gave a bioavailability [4] of under 1%.

Work on Cc1ccccc1NC(=O)Nc1ccc(CC(=O)N2CCCC2C(=O)N2CCC(CC(=O)O)CC2)cc1 (stereo not drawn) yielded a half-life [1] of 5.8 min, a half-life [2] of 20.2 min and a clearance [3] of 41.3 mL/min/kg. The bioavailability [4] was under 1%.
